For assay [1], the system named is Methicillin Sensitive S. aureus. As to the kind of experiment: Treatment of established infection in jugular vein catheterized mice. It is filed as in vivo. The note with it: Table 4, MSSA, Nafcillin (50) b.i.d. 4 days. As for the experimental part: Jugular vein catheterized mice (Charles River Labs) were used. The mice were challenged through the tail vein with S. aureus (10^3-10^4CFU, a much lower dose than the 5×10^6 CFU or greater typically necessary to establish an infection in mice not catheterized). Treatment began four days post challenge when infection was established. Lysostaphin was administered through the indwelling catheter in a volume of 200 μ PBS (in the case of methicillin resistant S. aureus, nafcillin was added to the treatment). After the final treatment of the day, 50 μl of a lock solution (50% sterile glucose solution) with lysostaphin (and nafcillin, when used), added at the same concentration as used for treatment, was put in the catheters. Control mice received equal treatments with PBS and lock solution alone.
On the day following the last treatment the liver, heart and a portion of the catheter in the heart were harvested. The catheter portions were sonicated to release bacteria.

Assay [2] relates to biofilms of S. aureus SA113. As to the kind of experiment: Kinetic effect on established biofilms: absorbance at 650 nm and safranin staining. Format: cell-based. The note with it: for effect on established biofilms (safranin): 400 μg/ml oxacillin or 800 μg/ml vancomycin, PBS or TSB, 24 hours; for absorbance of biofilms at 650 nM: as much as 400 μg/ml oxacillin or 800 μg/ml vancomycin in PBS; for absorbance of biofilms at 650 nM / effect on S. aureus biofilms (FIG. 8 legend): twenty four hours; for effect on absorbance of biofilms: in TSB, 24 hours (data not shown); for effect on S. aureus biofilms (FIG. 8 legend): PBS or bacterial media. The method, then:
Oxacillin and vancomycin have often been used in antibiotic susceptibility studies of S. aureus biofilms. […] Twenty four-hour biofilms in polystyrene 96-well tissue culture plates were treated with serial dilutions of lysostaphin, oxacillin, and vancomycin (FIG. 7).
In order to examine the kinetic effect of lysostaphin, oxacillin and vancomycin on biofilms, the absorbance of established biofilms in a 96-well tissue culture plate was measured over time (0-3 hrs and 24 hrs). Tissue culture wells containing biofilms of S. aureus SA113 were incubated with serial dilutions of lysostaphin ([…]), oxacillin ([…]), or vancomycin ([…]) for 24 hours, and the absorbance at 650 nm was monitored every 20 minutes for the first 3 hours and then again at 24 hours. The absorbance of the lysostaphin-treated biofilms dropped from approximately 0.35 at time zero to 0.125 after 3 hours of treatment and dropped to near base line (0.04) by 24 hrs when treated with a dose of lysostaphin of 6.25 μg/ml in PBS (FIG. 7). […] Since antimicrobials like oxacillin or vancomycin are effective against actively metabolizing bacteria, a similar experiment was conducted but the biofilms were incubated with the three anti-microbials in bacterial media (TSB). Very similar results were also found when the assay was conducted in TSB rather than PBS.
The capacity of the three agents to disrupt S. aureus biofilms in polystyrene wells can be visualized by comparing the staining intensity of treated wells versus control (buffer-treated) wells.

In the case of `CCOc1ccc2ccccc2c1C(=O)N[C@@H]1C(=O)N2[C@@H]1SC(C)(C)[C@@H]2C(=O)O` [Nafcillin, nafcillin, reference compound], the “S. aureus recovered, Heart” value in assay [1] was found to be 0 CFU.

In the case of `Cc1onc(-c2ccccc2)c1C(=O)N[C@@H]1C(=O)N2[C@@H]1SC(C)(C)[C@@H]2C(=O)O` [oxacillin], in assay [2], the “effect on established biofilms (safranin)” value is given as “no obvious effect”, the “absorbance of biofilms at 650 nM” value is reported as “around 0.325” and the “effect on absorbance of biofilms” value is given as “little or no effect”. Further, the “effect on absorbance of S. aureus biofilms over time (FIG. 7 legend)” value in assay [2] (lysostaphin 6.25 cg/ml, vancomycin 800 cg/ml, oxacillin 400 cg/ml) is listed as “no effect”. Besides, the “effect on S. aureus biofilms (FIG. 8 legend)” value in assay [2] (oxacillin 1.6-400 cg/ml, vancomycin 3.2-800 cg/ml) was “no effect”.

On to `CN[C@H](CC(C)C)C(=O)N[C@H]1C(=O)N[C@@H](CC(N)=O)C(=O)N[C@H]2C(=O)N[C@H]3C(=O)N[C@H](C(=O)N[C@H](C(=O)O)c4cc(O)cc(O)c4-c4cc3ccc4O)[C@H](O)c3ccc(c(Cl)c3)Oc3cc2cc(c3O[C@@H]2O[C@H](CO)[C@@H](O)[C@H](O)[C@H]2O[C@H]2C[C@](C)(N)[C@H](O)[C@H](C)O2)Oc2ccc(cc2Cl)[C@H]1O` [vancomycin], for which, in assay [2], the “effect on established biofilms (safranin)” value is listed as “no obvious effect”, the “absorbance of biofilms at 650 nM” value is “around 0.325” and the “effect on absorbance of biofilms” value is given as “little or no effect”. For the same compound, in assay [2] (lysostaphin 6.25 μg/ml, vancomycin 800 μg/ml, oxacillin 400 μg/ml), the “effect on absorbance of S. aureus biofilms over time (FIG. 7 legend)” value was “no effect”. Besides, the “effect on S. aureus biofilms (FIG. 8 legend)” value in assay [2] (oxacillin 1.6-400 μg/ml, vancomycin 3.2-800 μg/ml) is recorded as “no effect”.

Source of the values: patent US7572439B2, “Enzyme disruption of bacterial biofilms” (priority 2002, dated 2009).
